Measured values taken from the supplement of paper PMC10307832.

Assays:
Experiment in all cases: relative viability (nuclei count vs DMSO), 5 days (fraction); higher = more cells survive
Bosutinib + Pemetrexed = compound: COc1cc(Nc2c(C#N)cnc3cc(OCCCN4CCN(C)CC4)c(OC)cc23)c(Cl)cc1Cl [Bosutinib] + Nc1nc2[nH]cc(CCc3ccc(C(=O)N[C@@H](CCC(=O)O)C(=O)O)cc3)c2c(=O)[nH]1 [Pemetrexed] (partner 0.2 µM)
Procedure, shortened: (§1)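 Five library-drug doses in √10 steps were combined with a fixed anchor-drug dose, or a single drug was given alone, by pin tool to lung cancer cell lines in 1536-well plates the day after seeding. Nuclei were stained and counted after 5 days. Relative viability is the nuclei count in treated wells over that in vehicle wells, taken as the median of duplicate plates.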

Bosutinib + Palbociclib = compound: COc1cc(Nc2c(C#N)cnc3cc(OCCCN4CCN(C)CC4)c(OC)cc23)c(Cl)cc1Cl [Bosutinib] + CC(=O)c1c(C)c2cnc(Nc3ccc(N4CCNCC4)cn3)nc2n(C2CCCC2)c1=O [Palbociclib] (partner 0.5 µM)
Procedure, shortened: as §1

Bosutinib + Bortezomib = compound: COc1cc(Nc2c(C#N)cnc3cc(OCCCN4CCN(C)CC4)c(OC)cc23)c(Cl)cc1Cl [Bosutinib] + CC(C)C[C@H](NC(=O)[C@H](Cc1ccccc1)NC(=O)c1cnccn1)B(O)O [Bortezomib] (partner 0.002 µM)
Procedure, shortened: as §1

Bosutinib + Decitabine = compound: COc1cc(Nc2c(C#N)cnc3cc(OCCCN4CCN(C)CC4)c(OC)cc23)c(Cl)cc1Cl [Bosutinib] + Nc1ncn([C@H]2C[C@H](O)[C@@H](CO)O2)c(=O)n1 [Decitabine] (partner 2 µM)
Procedure, shortened: as §1

Bosutinib + Foretinib = compound: COc1cc(Nc2c(C#N)cnc3cc(OCCCN4CCN(C)CC4)c(OC)cc23)c(Cl)cc1Cl [Bosutinib] + COc1cc2c(Oc3ccc(NC(=O)C4(C(=O)Nc5ccc(F)cc5)CC4)cc3F)ccnc2cc1OCCCN1CCOCC1 [Foretinib] (partner 0.25 µM)
Procedure, shortened: as §1

| Cell Line | relative viability (Bosutinib + Pemetrexed; first compound 0.01 µM) | relative viability (Bosutinib + Pemetrexed; first compound 0.03162 µM) | relative viability (Bosutinib + Pemetrexed; first compound 0.1 µM) | relative viability (Bosutinib + Pemetrexed; first compound 1 µM) | relative viability (Bosutinib + Palbociclib; first compound 0.01 µM) | relative viability (Bosutinib + Palbociclib; first compound 0.03162 µM) | relative viability (Bosutinib + Palbociclib; first compound 0.1 µM) | relative viability (Bosutinib + Palbociclib; first compound 1 µM) | relative viability (Bosutinib + Bortezomib; first compound 0.01 µM) | relative viability (Bosutinib + Bortezomib; first compound 0.03162 µM) | relative viability (Bosutinib + Bortezomib; first compound 0.1 µM) | relative viability (Bosutinib + Bortezomib; first compound 1 µM) | relative viability (Bosutinib + Decitabine; first compound 0.01 µM) | relative viability (Bosutinib + Decitabine; first compound 0.03162 µM) | relative viability (Bosutinib + Decitabine; first compound 0.1 µM) | relative viability (Bosutinib + Decitabine; first compound 1 µM) | relative viability (Bosutinib + Foretinib; first compound 0.01 µM) | relative viability (Bosutinib + Foretinib; first compound 0.03162 µM) | relative viability (Bosutinib + Foretinib; first compound 0.1 µM) | relative viability (Bosutinib + Foretinib; first compound 1 µM) |
| --- | --- | --- | --- | --- | --- | --- | --- | --- | --- | --- | --- | --- | --- | --- | --- | --- | --- | --- | --- | --- |
| NCI-H2085 | 0.869 | 0.863 | 0.87 | 0.736 | 0.465 | 0.442 | 0.469 | 0.517 | 0.982 | 0.969 | 1.02 | 1.04 | 0.553 | 0.564 | 0.543 | 0.606 | 0.949 | 0.983 | 0.806 | 0.935 |
| NCI-H2087 | 0.705 | 0.626 | 0.741 | 0.631 | 0.247 | 0.263 | 0.218 | 0.276 | 0.809 | 1.02 | 0.876 | 1.03 | 0.289 | 0.311 | 0.294 | 0.271 | 1.02 | 1.02 | 1.17 | 1.1 |
| NCI-H2126 | 0.659 | 0.645 | 0.694 | 0.658 | 0.324 | 0.322 | 0.351 | 0.359 | 1.06 | 1.1 | 1.07 | 1.11 | 0.548 | 0.537 | 0.609 | 0.588 | 1.08 | 1.12 | 1.25 | 1.14 |
| NCI-H2347 | 0.434 | 0.469 | 0.462 | 0.421 | 0.499 | 0.425 | 0.432 | 0.453 | 1.12 | 1.3 | 1.09 | 0.923 | 0.631 | 0.623 | 0.64 | 0.529 | 0.929 | 0.878 | 0.988 | 0.885 |
| NCI-H2405 | 1.14 | 1.08 | 1.06 | 0.824 | 0.518 | 0.514 | 0.561 | 0.383 | 0.764 | 1.04 | 1.01 | 0.941 | 0.749 | 0.775 | 0.757 | 0.57 | 1.03 | 1.07 | 1.09 | 0.832 |
| NCI-H3122 | 0.201 | 0.199 | 0.207 | 0.202 | 0.214 | 0.18 | 0.201 | 0.218 | 1 | 1.1 | 1.04 | 1.06 | 0.43 | 0.462 | 0.388 | 0.538 | 1.04 | 0.979 | 0.926 | 0.993 |
| PC-3 [JPC-3] | 1.1 | 1.08 | 1.11 | 0.688 | 0.506 | 0.543 | 0.542 | 0.516 | 0.8 | 0.773 | 0.765 | 0.77 | 0.883 | 0.798 | 0.826 | 0.596 | 1 | 0.993 | 1.05 | 0.759 |
| PC-14 | 0.134 | 0.135 | 0.13 | 0.145 | 0.566 | 0.482 | 0.32 | 0.0932 | 0.871 | 0.922 | 0.808 | 0.276 | 0.248 | 0.226 | 0.224 | 0.174 | 0.963 | 0.975 | 0.98 | 0.255 |
| RERF-LC-KJ | 0.504 | 0.495 | 0.492 | 0.478 | 0.956 | 1.06 | 1.06 | 1.08 | 1.08 | 1.08 | 1.07 | 1.05 | 0.643 | 0.656 | 0.645 | 0.737 | 0.893 | 0.888 | 0.815 | 0.867 |
| SK-LU-1 | 1.02 | 0.899 | 0.982 | 0.693 | 0.399 | 0.436 | 0.397 | 0.294 | 1.15 | 1.21 | 1.04 | 0.922 | 0.646 | 0.644 | 0.637 | 0.548 | 0.841 | 0.85 | 0.813 | 0.449 |
| SW 1573 | 0.796 | 0.791 | 0.911 | 0.838 | 0.418 | 0.419 | 0.365 | 0.4 | 1.05 | 1.06 | 0.917 | 1.02 | 0.606 | 0.48 | 0.557 | 0.451 | 0.913 | 0.825 | 0.693 | 0.858 |
| UMC-11 | 0.795 | 0.755 | 0.807 | 0.707 | 0.366 | 0.344 | 0.33 | 0.279 | 0.683 | 0.778 | 0.718 | 0.666 | 0.661 | 0.555 | 0.596 | 0.535 | 0.979 | 1.07 | 1.03 | 0.94 |
